How the values were obtained:
[1] = test system: NCI-H660 NEPC cell line-derived xenografts; experiment: NCI-H660 NEPC xenograft in SCID mice; type: in vivo; settings: 46 days of treatment, 30 mg/kg
Method: (§1) For xenograft studies, 6-10-week-old CB17 severe combined immunodeficiency (SCID) mice obtained from the University of Michigan breeding colony were used. For syngeneic studies, 6-10-week-old C57BL6 mice obtained from Jackson Laboratories were used. Subcutaneous tumors were established at both sides of the dorsal flank of the mice by injecting 1×10^6 cells in […] of 50:50 Matrigel and serum-free media. Tumors were measured 2-3 times per week using digital calipers following the formula (π/6) (L×W2), where L=length and W=width of the tumor. At the end of the studies, mice were sacrificed, and tumors extracted and weighed.
Given the hypoxic and nutrient-depleted environments of NEPC Guo et al., Nat Commun. 2019; 10(1):278; Qi et al., Cancer Cell. 2010; 18(1):23-38., it was hypothesized that NEPC may be dependent on autophagy and sensitive to PIKfyve inhibition by ESK981. To test this NEPC prostate patient-derived xenograft (PDX) of NCI-H660, LTL331R, and LTL610 were subcutaneously grown into non-castrated SCID mice until tumors reached an average size of 100 mm^3, after which mice were randomized into two groups. Mice in each group received either vehicle or 30 mg/kg ESK981 five days per week. […] The anti-tumor effect of ESK981 was in turn confirmed in two additional NEPC PDX models including LTL331R (FIGS. 12-14) and LTL610 xenografts (FIG. 15-17). […]

LTL545 NEPC PDX tumors = experiment: LTL545 NEPC PDX model; settings: mouse, in vivo
[2] = test system: MIA-PaCa-2 human PDAC cell line xenograft; experiment: MIA-PaCa-2 PDAC xenograft (CDX) in SCID mice; type: in vivo; settings: Day 36 versus Day 1
Method: as §1
Terminal dUTP Nick End Labeling (TUNEL) staining was performed with an In Situ Cell Death Detection Kit (TMR Red #12156792910; Roche Applied Science) following the manufacturer's instructions. Briefly, fixed sections were permeabilized using Triton X-100 followed by PBS washing. The labelling reaction was performed at 37° C. for 1 hour by addition of the reaction buffer containing enzymes. Images were acquired using a Zeiss Axiolmager M1 microscope.
Given the enhanced autophagy dependence of PDAC and the urgent need for new therapies, ESK981 was investigated for efficacy in combatting this type of cancer. […]

7940B orthotopic tumors = experiment: 7940B syngeneic orthotopic model in C57BL/6 mice; type: in vivo, mouse; settings: ESK981 30 mg/kg QD PO, trametinib 1 mg/kg QD PO
[3] = test system: MIA PaCa-2, PANC-1, and 7940B cell lines; experiment: Confluence assays of ND646 with PIKfyve inhibitors; type: cell-based, human and mouse; settings: ND646 100 nM (MIA PaCa-2, PANC-1), 1000 nM (7940B)
Method: (§2) Cells were seeded in a clear 96-well plate overnight prior to treatment. Upon treatment with indicated compounds, plates were incubated in an Incucyte S3 2022 Rev1 (Sartorious), with 10× images taken every 4 hours, and well confluence was analyzed to assess for proliferation.

ACC1 = biological target: T1, ACC1 (Homo sapiens, UniProt Q13085); experiment: Immunoblot of ACC1 phosphorylation status upon ND646; type: cell-based; settings: MIA PaCa-2, PANC-1, 7940B cells
T1 construct: endogenous in cells; host or cells: MIA PaCa-2 (human PDAC)
Method: Cell lysates were prepared in RIPA buffer (ThermoFisher Scientific) supplemented with Halt™ Protease and Phosphatase Inhibitor Cocktail (ThermoFisher Scientific). Total protein was measured by DC™ Protein Assay Kit II (BIO-RAD). An equal amount of protein was resolved in NuPAGE™ 3 to 8%, Tris-Acetate Protein Gel (ThermoFisher Scientific) or NuPAGE™ 4 to 12%, Bis-Tris Protein Gel (ThermoFisher Scientific), blocked with 5% nonfat dry milk in TBS-T and blotted with primary antibodies overnight. Following incubation with HRP-conjugated secondary antibodies, membranes were imaged on an Odyssey CLx Imager (LiCOR Biosciences).

7940B cells = experiment: Real-time oxygen consumption rate (Resipher) in 7940B cells; type: cell-based, mouse; settings: apilimod 100 nM, ESK981 1000 nM, bafilomycin 100 nM, chloroquine 100 μM
Method: Real-time monitoring of basal oxygen consumption rate was performed using a Resipher (Lucid Scientific). […] Immediately following treatment with an additional 50 μl of medium (for a total of 100 μl), OCR monitoring was started by placing the Resipher device on the cells, which was incubated at 37° C. and 5% CO2 for 24 hours.

[4] = test system: PDAC cells (7940B, PANC-1, Panc 04.03); experiment: Rescue of antiproliferative effects with ferric ammonium citrate (FAC); type: cell-based, human and mouse; settings: with ferric ammonium citrate and ferrostatin-1 (1 μM)
Method: as §2

In the case of `CC(C)Cn1c2ccc(Nc3ncccn3)cc2c2c3c(c4c(c21)CCc1nn(C)cc1-4)C(=O)NC3` [ESK981, 13-isobutyl-4-methyl-10-(pyrimidin-2-ylamino)-1,2,4,7,8,13-hexahydro-6H-indazolo[5,4-a]pyrrolo[3,4-c]carbazol-6-one], the adverse events [1] was “no adverse events were observed”, the “individual tumors regressed (waterfall plot)” value (LTL545 NEPC PDX tumors) was 80% and the tumors cured (LTL545 NEPC PDX tumors) was 80%. The “rate of tumor regression (waterfall plot)” value [2] was 64% and the “mouse body weight throughout the treatment course” value (7940B orthotopic tumors) was “did not impact mouse body weight”.

In the case of `CC(=O)Nc1cccc(-n2c(=O)n(C3CC3)c(=O)c3c(Nc4ccc(I)cc4F)n(C)c(=O)c(C)c32)c1` [trametinib], the “mouse body weight throughout the treatment course” value (7940B orthotopic tumors) was “did not impact mouse body weight”.

`COc1ccccc1[C@H](Cn1c(=O)n(C(C)(C)C(N)=O)c(=O)c2c(C)c(-c3ncco3)sc21)OC1CCOCC1` [ND646] was tested, and the “sensitization to ESK981 (confluence)” value ([3]; ESK981 30 nM or 100 nM) was “sensitized”, the “sensitization to apilimod (confluence)” value ([3]; apilimod 100 nM or 50 nM) was “sensitized” and the “phosphorylation status of ACC1 (p-ACC1)” value (ACC1) was “on-target effects”.

In the case of `CO/C1=C\C(C)=C\[C@@H](C)[C@@H](O)[C@@H](C)C/C(C)=C/C=C/[C@H](OC)[C@@H]([C@@H](C)[C@@H](O)[C@H](C)[C@@]2(O)C[C@@H](O)[C@H](C)[C@@H](C(C)C)O2)OC1=O` [bafilomycin A1], the “OCR through 24 hours of treatment” value (7940B cells) was “significantly decreased OCR” and the “antiproliferative effects upon addition of FAC” value [4] was “drastically attenuated”.

Reference: patent US20260053801A1, “METHOD FOR TREATING AUTOPHAGY DEPENDENT CANCER WITH A PIKFYVE INHIBITOR” (The Regents of the University of Michigan, priority 2023, published 2026)
